How the values were obtained:
[1] = molecular target: memapsin 2 (Homo sapiens, UniProt P56817); assay: Inhibition of memapsin 2 beta-secretase activity toward fluorogenic substrate FS-2; type: biochemical; conditions: pH 4, 37° C., 20 minutes pre-incubation, read-out: M2 Ki
Experimental: Potency of compounds were determined by measurement of their inhibition of memapsin 2 activity toward a fluorescent substrate. […] Briefly, assays were performed at pH 4, 37° C., by pre-incubation of memapsin 2 enzyme with compound for 20 minutes. Activity measure was initiated by addition of a fluorogenic substrate FS-2 (Bachem Americas, Torrance, Calif.). Fluorescent signal increase over time was measured as a rate of hydrolysis of the peptide substrate.

[2] = system: Aβ production; assay: Cellular Aβ IC50 determination (Aβ40 sandwich ELISA); type: cell-based; conditions: Cricetulus griseus, Chinese hamster ovary cells over-expressing human APP695 with London and Swedish mutations, 24 h
Experimental: The potency of compounds against memapsin 2 activity was determined in a cellular assay of Aβ production. […] Chinese hamster ovary cells that over-express human APP695 with the London and Swedish mutations were seeded in multi-well plates at 10% confluency. Compounds were dissolved in DMSO to concentrations near 1 mM, and diluted into culture media to a final concentration near 4 μM (final 0.4% DMSO). Compounds were diluted serially and applied to cells in multi-well plates 48 h after seeding. Incubation was continued in 5% CO2 at 37 degrees C. for 24 h. Aliquots were removed and assayed for Aβ40 content using a sandwich ELISA (BioSource International). Amount of Aβ40 over the range of concentration of compounds, relative to control incubations, were fit to a 4-parameter IC50 model.

memapsin 2, sequence (P56817 46-501): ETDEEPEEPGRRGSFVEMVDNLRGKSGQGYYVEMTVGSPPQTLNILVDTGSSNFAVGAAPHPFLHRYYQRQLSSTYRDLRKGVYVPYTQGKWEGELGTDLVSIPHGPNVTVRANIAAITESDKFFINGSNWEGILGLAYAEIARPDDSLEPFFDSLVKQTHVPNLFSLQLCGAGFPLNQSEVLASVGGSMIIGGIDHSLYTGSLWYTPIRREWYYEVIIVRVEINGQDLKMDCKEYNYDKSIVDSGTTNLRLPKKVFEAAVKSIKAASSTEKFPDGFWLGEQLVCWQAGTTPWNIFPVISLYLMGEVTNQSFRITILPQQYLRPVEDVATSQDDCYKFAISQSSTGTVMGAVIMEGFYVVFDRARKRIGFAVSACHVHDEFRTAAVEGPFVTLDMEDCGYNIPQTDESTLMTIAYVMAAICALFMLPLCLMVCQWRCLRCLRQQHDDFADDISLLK

SMILES | Ki [1] [nM] | IC50 [2] [nM]
COc1cccc(CNC(=O)CNC(=O)C(C)CC(O)C(CC(C)C)NC(=O)c2cc(C(=O)NC(C)c3ccccc3)cc(N(C)S(C)(=O)=O)c2)c1 (stereo not drawn) [N1-(5-hydroxy-8-(2-(3-methoxybenzylamino)-2-oxoethylamino)-2,7-dimethyl-8-oxooctan-4-yl)-5-(N-methylmethylsulfonamido)-N3-(1-phenylethyl)isophthalamide] | 405 to 2000 | 
CC(C)CNC(=O)C(NC(=O)C(C)CC(O)C(CC(C)C)NC(=O)c1cc(OCC(O)CN=[N+]=[N-])cc(C(=O)NC(C)c2ccccc2)c1)C(C)C (stereo not drawn) [5-(3-azido-2-hydroxypropoxy)-N1-(5-hydroxy-8-(1-(isobutylamino)-3-methyl-1-oxobutan-2-ylamino)-2,7-dimethyl-8-oxooctan-4-yl)-N3-(1-phenylethyl)isophthalamide] | 405 to 2000 | 
CC(C)CNC(=O)C(NC(=O)C(C)CC(O)C(CC(C)C)NC(=O)c1cccc(C(=O)N(C)Cc2cccc(O)c2)c1)C(C)C (stereo not drawn) [N1-(5-hydroxy-8-(1-(isobutylamino)-3-methyl-1-oxobutan-2-ylamino)-2,7-dimethyl-8-oxooctan-4-yl)-N3-(3-hydroxybenzyl)-N3-methylisophthalamide] | 405 to 2000 | > 20000
CC(C)CC(NC(=O)c1cc(C(=O)NC(C)c2ccccc2)cc(N(C)S(C)(=O)=O)c1)C(O)CC(C)C(=O)NC(C(=O)NC(C)C)C(C)C (stereo not drawn) [N1-(5-hydroxy-8-(1-(isopropylamino)-3-methyl-1-oxobutan-2-ylamino)-2,7-dimethyl-8-oxooctan-4-yl)-5-(N-methylmethylsulfonamido)-N3-(1-phenylethyl)isophthalamide] |  | < 5000
CCN(Cc1ccncc1)C(=O)c1cncc(C(=O)NC(CC(C)C)C(O)CC(C)C(=O)NC(C(=O)NCC(C)C)C(C)C)c1 (stereo not drawn) [N3-ethyl-N5-(5-hydroxy-8-(1-(isobutylamino)-3-methyl-1-oxobutan-2-ylamino)-2,7-dimethyl-8-oxooctan-4-yl)-N3-(pyridin-4-ylmethyl)pyridine-3,5-dicarboxamide] | > 5000 | 
CCCN(CCC)C(=O)c1cc(NC(=O)OC(C)(C)C)cc(C(=O)NC(CC(C)C)C(O)CC(OC)C(=O)NC(C(=O)NC(C)C)C(C)C)c1 (stereo not drawn) [tert-butyl 3-(dipropylcarbamoyl)-5-(5-hydroxy-8-(1-(isopropylamino)-3-methyl-1-oxobutan-2-ylamino)-7-methoxy-2-methyl-8-oxooctan-4-ylcarbamoyl)phenylcarbamate] | > 5000 | 
CC(C)CC(NC(=O)c1cc(C(=O)NCc2ccccc2)cc(N(C)S(C)(=O)=O)c1)C(O)CC(C)C(=O)NC(C(=O)NC(C)C)C(C)C (stereo not drawn) [N1-benzyl-N3-(5-hydroxy-8-(1-(isopropylamino)-3-methyl-1-oxobutan-2-ylamino)-2,7-dimethyl-8-oxooctan-4-yl)-5-(N-methylmethylsulfonamido)isophthalamide] |  | 5000 to 10000
CCCN(CCC)C(=O)c1cccc(C(=O)NC(CC(C)C)C(O)CC(C)C(=O)NCC(C)C)c1 (stereo not drawn) [N1-(5-hydroxy-8-(isobutylamino)-2,7-dimethyl-8-oxooctan-4-yl)-N3,N3-dipropylisophthalamide] | 2000 to 5000 | 
CC(C)CC(NC(=O)c1cc(C(=O)NC(C)c2ccccc2)cc(N(C)S(C)(=O)=O)c1)C(O)CC(NC(=O)OCc1ccccc1)C(=O)NC(C(=O)NC(C)C)C(C)C (stereo not drawn) [benzyl 4-hydroxy-1-(1-(isopropylamino)-3-methyl-1-oxobutan-2-ylamino)-7-methyl-5-(3-(N-methylmethylsulfonamido)-5-(1-phenylethylcarbamoyl)benzamido)-1-oxooctan-2-ylcarbamate] | 405 to 2000 | 
CCc1csc(CNC(=O)c2cc(C(=O)NC(CC(C)C)C(O)CC(C)C(=O)NC(C(=O)NCC(C)C)C(C)C)cc(N(C)S(C)(=O)=O)c2)n1 (stereo not drawn) [N1-((4-ethylthiazol-2-yl)methyl)-N3-(5-hydroxy-8-(1-(isobutylamino)-3-methyl-1-oxobutan-2-ylamino)-2,7-dimethyl-8-oxooctan-4-yl)-5-(N-methylmethylsulfonamido)isophthalamide] | < 405 | 

Second part, the compound after the results:

Ki [1] [nM] | IC50 [2] [nM] | SMILES
< 405 | > 20000 | Cc1csc(CN(C)C(=O)c2cccc(C(=O)NC(CC(C)C)C(O)CC(C)C(=O)NC(C(=O)NCC(C)C)C(C)C)n2)n1 (stereo not drawn) [N2-(5-hydroxy-8-(1-(isobutylamino)-3-methyl-1-oxobutan-2-ylamino)-2,7-dimethyl-8-oxooctan-4-yl)-N6-methyl-N6-((4-methylthiazol-2-yl)methyl)pyridine-2,6-dicarboxamide]
< 405 |  | Cc1csc(CN(C(=O)c2cccc(C(=O)NC(CC(C)C)C(O)CC(C)C(=O)NC(C(=O)NCC(C)C)C(C)C)c2)C(C)C)n1 (stereo not drawn) [N1-(5-hydroxy-8-(1-(isobutylamino)-3-methyl-1-oxobutan-2-ylamino)-2,7-dimethyl-8-oxooctan-4-yl)-N3-isopropyl-N3-((4-methylthiazol-2-yl)methyl)isophthalamide]
< 405 |  | CC(C)CNC(=O)C(NC(=O)C(C)CC(O)C(CC(C)C)NC(=O)c1cc(OCC2CNC(=O)O2)cc(C(=O)NC(C)c2ccccc2)c1)C(C)C (stereo not drawn) [N1-(5-hydroxy-8-(1-(isobutylamino)-3-methyl-1-oxobutan-2-ylamino)-2,7-dimethyl-8-oxooctan-4-yl)-5-((2-oxooxazolidin-5-yl)methoxy)-N3-(1-phenylethyl)isophthalamide]
< 405 | < 5000 | CC(C)CC(NC(=O)c1cc(C(=O)NC(C)c2ccccc2)cc(N(C)S(C)(=O)=O)c1)C(O)CC(N=[N+]=[N-])C(=O)NC(C(=O)NC(C)C)C(C)C (stereo not drawn) [N1-(7-azido-5-hydroxy-8-(1-(isopropylamino)-3-methyl-1-oxobutan-2-ylamino)-2-methyl-8-oxooctan-4-yl)-5-(N-methylmethylsulfonamido)-N3-(1-phenylethyl)isophthalamide]
< 405 | 5000 to 10000 | CNS(=O)(=O)c1cc(C(=O)NC(C)c2ccccc2)cc(C(=O)NC(CC(C)C)C(O)CC(C)C(=O)NC(C(=O)NCC(C)C)C(C)C)c1 (stereo not drawn) [N1-(5-hydroxy-8-(1-(isobutylamino)-3-methyl-1-oxobutan-2-ylamino)-2,7-dimethyl-8-oxooctan-4-yl)-5-(N-methylsulfamoyl)-N3-(1-phenylethyl)isophthalamide]
< 405 | > 20000 | CC(C)CC(NC(=O)c1cc(C(=O)NC(C)c2ccccc2)cc(N(C)S(C)(=O)=O)c1)C(O)CC(N)C(=O)NC(C(=O)NC(C)C)C(C)C (stereo not drawn) [N1-(7-amino-5-hydroxy-8-(1-(isopropylamino)-3-methyl-1-oxobutan-2-ylamino)-2-methyl-8-oxooctan-4-yl)-5-(N-methylmethylsulfonamido)-N3-(1-phenylethyl)isophthalamide]
< 405 | 5000 to 10000 | CC(=O)N(C)c1cc(C(=O)NC(C)c2ccccc2)cc(C(=O)NC(CC(C)C)C(O)CC(C)C(=O)NC(C(=O)NCC(C)C)C(C)C)c1 (stereo not drawn) [N1-(5-hydroxy-8-(1-(isobutylamino)-3-methyl-1-oxobutan-2-ylamino)-2,7-dimethyl-8-oxooctan-4-yl)-5-(N-methylacetamido)-N3-(1-phenylethyl)isophthalamide]
< 405 | > 20000 | Cc1cc(C(=O)NC(CC(C)C)C(O)CC(C)C(=O)NC(C(=O)NCC(C)C)C(C)C)cc(C(=O)N(C)Cc2ccccn2)c1 (stereo not drawn) [N1-(5-hydroxy-8-(1-(isobutylamino)-3-methyl-1-oxobutan-2-ylamino)-2,7-dimethyl-8-oxooctan-4-yl)-N3,5-dimethyl-N3-(pyridin-2-ylmethyl)isophthalamide]
< 405 | < 5000 | CCN(Cc1nc(C)cs1)C(=O)c1cccc(C(=O)NC(CC(C)C)C(O)CC(C)C(=O)NC(C(=O)NCC(C)C)C(C)C)c1 (stereo not drawn) [N1-ethyl-N3-(5-hydroxy-8-(1-(isobutylamino)-3-methyl-1-oxobutan-2-ylamino)-2,7-dimethyl-8-oxooctan-4-yl)-N1-((4-methylthiazol-2-yl)methyl)isophthalamide]
< 405 | < 5000 | CC(C)CC(NC(=O)c1cc(C(=O)NC(C)c2ccccc2)cc(N(C)S(C)(=O)=O)c1)C(O)CC(C)C(=O)NC(C(=O)NCC1CN(C)C1)C(C)C (stereo not drawn) [N1-(5-hydroxy-2,7-dimethyl-8-(3-methyl-1-((1-methylazetidin-3-yl)methylamino)-1-oxobutan-2-ylamino)-8-oxooctan-4-yl)-5-(N-methylmethylsulfonamido)-N3-(1-phenylethyl)isophthalamide]
< 405 | < 5000 | CC(C)CC(NC(=O)c1cc(C(=O)NC(C)c2ccccc2)cc(N(C)S(C)(=O)=O)c1)C(O)CC(C)C(=O)NC(C(=O)NCC1CCN(C)CC1)C(C)C (stereo not drawn) [N1-(5-hydroxy-2,7-dimethyl-8-(3-methyl-1-((1-methylpiperidin-4-yl)methylamino)-1-oxobutan-2-ylamino)-8-oxooctan-4-yl)-5-(N-methylmethylsulfonamido)-N3-(1-phenylethyl)isophthalamide]
< 405 |  | Cc1nc(CN(C)C(=O)c2cccc(C(=O)NC(CC(C)C)C(O)CC(C)C(=O)NC(C(=O)NCC(C)C)C(C)C)c2)cs1 (stereo not drawn) [N1-(5-hydroxy-8-(1-(isobutylamino)-3-methyl-1-oxobutan-2-ylamino)-2,7-dimethyl-8-oxooctan-4-yl)-N3-methyl-N3-((2-methylthiazol-4-yl)methyl)isophthalamide]
< 405 |  | CCCN(CCC)C(=O)c1cncc(C(=O)NC(CC(C)C)C(O)CC(C)C(=O)NC(C(=O)NC(C)C)C(C)C)c1 (stereo not drawn) [N3-(5-hydroxy-8-(1-(isopropylamino)-3-methyl-1-oxobutan-2-ylamino)-2,7-dimethyl-8-oxooctan-4-yl)-N5,N5-dipropylpyridine-3,5-dicarboxamide]

Reference: patent US20080207527A1, “Bicyclic Compounds Which Inhibit Beta-Secretase Activity and Methods of Use Thereof” (CoMentis, Inc., priority 2004, published 2008)
